Experimental data from ChEMBL document CHEMBL4834393, “Building a Chemical Toolbox for Human Pregnane X Receptor Research: Discovery of Agonists, Inverse Agonists, and Antagonists Among Analogs Based on the Unique Chemical Scaffold of SPA70” (J Med Chem, 2021).

Assays:
[1] = target: T1, Nuclear receptor subfamily 1 group I member 2 (Homo sapiens, UniProt O75469); experiment: Displacement of BODIPY FL vindoline from GST-tagged human PXR LBD incubated for 60 mins by TR-FRET assay
T1 sequence (O75469 whole entry): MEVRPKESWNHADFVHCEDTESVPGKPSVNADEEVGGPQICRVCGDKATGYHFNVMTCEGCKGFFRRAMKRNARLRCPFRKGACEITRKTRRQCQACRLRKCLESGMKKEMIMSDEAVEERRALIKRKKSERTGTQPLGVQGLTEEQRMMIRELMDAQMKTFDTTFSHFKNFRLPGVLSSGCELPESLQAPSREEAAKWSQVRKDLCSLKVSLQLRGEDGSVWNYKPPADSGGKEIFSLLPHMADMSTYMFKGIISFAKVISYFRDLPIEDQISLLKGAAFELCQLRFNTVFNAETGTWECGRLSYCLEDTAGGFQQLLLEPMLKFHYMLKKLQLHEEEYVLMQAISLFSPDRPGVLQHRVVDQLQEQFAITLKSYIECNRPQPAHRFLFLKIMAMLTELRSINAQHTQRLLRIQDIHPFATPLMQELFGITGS

PXR (NR1I2) [2] = target: T2, PXR (NR1I2) (Homo sapiens, UniProt O75469); experiment: Displacement of BODIPY FL vindoline from GST-tagged human PXR LBD at 10 uM incubated for 60 mins by TR-FRET assay relative to control; conditions: GST-tagged human PXR LBD (recombinant protein), probe BODIPY FL vindoline
T2 sequence (O75469 whole entry): T1 sequence (O75469 whole entry)

[3] = target: T1, Nuclear receptor subfamily 1 group I member 2; experiment: Agonist activity at human PXR expressed in HepG2 cells co-expressing luciferase gene under control of CYP3A4 promoter incubated for 24 hrs by luciferase reporter assay
PXR (NR1I2) [4] = target: T2, PXR (NR1I2); experiment: Agonist activity at human PXR expressed in HepG2 cells co-expressing luciferase gene under control of CYP3A4 promoter at 10 uM incubated for 24 hrs by luciferase reporter assay relative to control
[5] = target: T1, Nuclear receptor subfamily 1 group I member 2; experiment: Antagonist activity at human PXR expressed in HepG2 cells co-expressing luciferase gene under control of CYP3A4 promoter incubated for 24 hrs in presence of 5 uM rifampicin by luciferase reporter assay
PXR (NR1I2) [6] = target: T2, PXR (NR1I2); experiment: Inhibition of human PXR expressed in HepG2 cells co-expressing luciferase gene under control of CYP3A4 promoter at 10 uM incubated for 24 hrs in presence of 5 uM rifampicin by luciferase reporter assay relative to control; format: cell-based
HepG2 = experiment: Cytotoxicity against human HepG2 cells co-expressing luciferase gene under control of CYP3A4 promoter measured after 24 hrs by CellTiter-Glo luminescent cell viability assay; format: ADME, cell-based; conditions: Homo sapiens, HepG2, 24 h

Row | SMILES | IC50 [1] | inhibition at 1 h, 10 µM (PXR (NR1I2) [2]) | EC50 [3] | activity at 24 h, 10 µM (PXR (NR1I2) [4]) | IC50 [5] | inhibition at 24 h, 10 µM (PXR (NR1I2) [6]) | IC50 (HepG2)
1 | COc1ccc(C)cc1-n1cc(S(=O)(=O)c2ccc(C(C)(C)C)cc2)nn1 | 500 nM | 98% | 600 nM | 69% | 5000 nM | 44% | 
2 | COc1cc(Br)c(Cl)cc1-n1nnc(S(=O)(=O)c2ccc(C(C)(C)C)cc2)c1C | 550 nM | 67% | 600 nM | 26% |  | 38% | 
3 | COc1cc(C#N)c(Cl)cc1-n1nnc(S(=O)(=O)c2ccc(C(C)(C)C)cc2)c1C | 600 nM | 40% | 1000 nM | 49% | 3400 nM | 44% | 
4 | COC(=O)c1cc(OC)c(-n2nnc(S(=O)(=O)c3ccc(C(C)(C)C)cc3)c2C)cc1C | 1500 nM | 64% | 1600 nM | 75% | 6000 nM | 32% | 
5 | COc1cc(C#N)c(C)cc1-n1nnc(S(=O)(=O)c2ccc(C(C)(C)C)cc2)c1C | 1070 nM | 48% | 1600 nM | 58% | 4000 nM | 33% | 
6 | COc1ccc(Cl)cc1-n1nnc(S(=O)(=O)c2ccc(C(C)(C)C)cc2)c1N | 500 nM | 93% | 110 nM | 42% | 4400 nM | 78% | 
7 | COc1ccc(OC)c(-n2cc(S(=O)(=O)c3ccc(C(C)(C)C)cc3)nn2)c1 | 1400 nM | 98% | 1400 nM | 35% | 3400 nM | 71% | 
8 | COc1cc(Cl)c(C)cc1-n1nnc(S(=O)(=O)c2ccc(C(C)(C)C)cc2)c1C | 700 nM | 71% | 800 nM | 51% | 2000 nM | 57% | 
9 | COc1cc(C(C)=O)c(C)cc1-n1nnc(S(=O)(=O)c2ccc(C(C)(C)C)cc2)c1C | 1400 nM | 80% | 400 nM | 77% | 9000 nM | 111% | 16500 nM
10 | COc1ccc(CO)cc1-n1nnc(S(=O)(=O)c2ccc(C(C)(C)C)cc2)c1C | 1400 nM | 95% | 810 nM | 82% | 2000 nM | 64% | 
11 | COc1cc(-n2nnc(S(=O)(=O)c3ccc(C(C)(C)C)cc3)c2C)c(OC)cc1F | 4000 nM | 87% | 1000 nM | 24% | 2000 nM | 72% | 
12 | COc1ccc(OC)c(-n2nnc(S(=O)(=O)c3ccc(C(C)(C)C)cc3)c2N)c1 | 180 nM | 85% | 430 nM | 53% | 1700 nM | 52% | 
13 | COc1cc(C)c(Cl)cc1-n1nnc(S(=O)(=O)c2ccc(C(C)(C)C)cc2)c1C | 1200 nM | 87% | 1000 nM | 33% | 2300 nM | 64% | 
14 | COc1ccc(C)cc1-n1nnc(S(=O)(=O)c2ccc(C(C)(C)C)cc2)c1N | 280 nM | 88% | 160 nM | 73% | 3300 nM | 46% | 
15 | COc1ccc(Cl)cc1-c1ncc(S(=O)(=O)c2ccc(C(C)(C)C)cc2)[nH]1 | 1300 nM | 81% | 360 nM | 71% |  |  | 
16 | COc1ccc(C(N)=O)cc1-n1nnc(S(=O)(=O)c2ccc(C(C)(C)C)cc2)c1C | 1100 nM | 95% | 2440 nM | 182% |  |  | 
17 | COC(=O)c1cc(OC)c(-n2nnc(S(=O)(=O)c3ccc(C(C)(C)C)cc3)c2C)cc1OC | 2300 nM | 72% | 3400 nM | 78% |  |  | 
18 | COC(=O)c1cc(OC)c(-n2nnc(S(=O)(=O)c3ccc(C(C)(C)C)cc3)c2C)cc1Cl | 700 nM | 35% | 1900 nM | 62% | 10000 nM | 51% | 
19 | COc1cc(-n2nnc(S(=O)(=O)c3ccc(C(C)(C)C)cc3)c2C)c(OC)cc1C | 500 nM | 73% | 600 nM | 75% |  | 30% | 
20 | CCc1cc(OC)c(-n2nnc(S(=O)(=O)c3ccc(C(C)(C)C)cc3)c2C)cc1Cl | 1500 nM | 59% | 700 nM | 58% |  |  | 
21 | COc1ccc(OC)c(-n2nnc(S(=O)(=O)c3ccc(C(C)(C)C)cc3)c2C#N)c1 | 300 nM | 97% | 260 nM | 88% | 2400 nM | 38% | 
22 | COc1cc(-n2nnc(S(=O)(=O)c3ccc(C(C)(C)C)cc3)c2C)c(OC)cc1C(C)=O | 900 nM | 48% | 500 nM | 97% |  |  | 
23 | COc1ccccc1-n1nnc(S(=O)(=O)c2ccc(C(C)(C)C)cc2)c1C | 530 nM | 103% | 800 nM | 56% | 1000 nM | 53% | 
